Data: US20110262442A1, “COMPOSITIONS FOR TREATING CNS DISORDERS” (Adenios, Inc., priority 2009, published 2011)

How the values were obtained:
[1] = test system: blood brain barrier; assay: Fluorimetric analysis of labeled dextrans in brain after i.v. drug administration, rats; assay type: in vivo; conditions: i.v. administration, 10,000 Da dextrans
Protocol: C57BL/6 mice from Jackson Laboratories were used as wild types. All mice used were aged 7-9 weeks and weighed between 20-25 g. All rats were aged 8 weeks and weighed 200-220 g. Mice and rats were bred and housed under specific pathogen-free conditions. The adenosine receptor agonists NECA, CCPA and CGS 21860 were purchased from Tocris. Each was dissolved in DMSO then diluted in PBS to the desired concentration; in most cases final DMSO concentrations were <0.5% (vol/vol). For vehicle controls, DMSO was diluted in PBS to the same concentration. Dehydrated dextrans labeled with either FITC or Texas Red were purchased from Invitrogen and re-suspended in PBS to 10 mg ml^-1. All experiments involving dextran injection used 0.5 mg dextran in PBS. In experiments where drug and dextran were injected concomitantly, 0.5 mg of dextran was mixed with the drug to the desired concentration in a final volume of 200 μl. All injections were retro-orbital i.v. with a 27-gauge needle. In the SCH 58261 experiment, groups were administered vehicle or SCH 58261 for 4 d. Vehicle/drug and dextrans were injected on day 5 and tissues were collected 3 h after vehicle/drug administration. […] FITC-dextran was detected at 488/519 (excitation/emission) and Texas Red-dextran was detected at 592/618.

[2] = test system: brain endothelial cells; assay: Actin stress fiber induction in brain endothelial cells; assay type: cell-based
Protocol: To test this brain endothelial cells were treated with either CCPA (to agonize A1 adenosine receptors) or […] (to agonize the A2A adenosine receptor).

[3] = test system: blood brain barrier; assay: Fluorimetric analysis of labeled dextrans in brain after i.v. drug administration; assay type: in vivo, mice
Protocol: C57BL/6 mice from Jackson Laboratories were used as wild types. All mice used were aged 7-9 weeks and weighed between 20-25 g. All rats were aged 8 weeks and weighed 200-220 g. Mice and rats were bred and housed under specific pathogen-free conditions.
The adenosine receptor agonists NECA, CCPA and CGS 21860 were purchased from Tocris. Each was dissolved in DMSO then diluted in PBS to the desired concentration; in most cases final DMSO concentrations were <0.5% (vol/vol). For vehicle controls, DMSO was diluted in PBS to the same concentration. Dehydrated dextrans labeled with either FITC or Texas Red were purchased from Invitrogen and re-suspended in PBS to 10 mg ml^−1. All experiments involving dextran injection used 0.5 mg dextran in PBS. In experiments where drug and dextran were injected concomitantly, 0.5 mg of dextran was mixed with the drug to the desired concentration in a final volume of 200 μl. All injections were retro-orbital i.v. with a 27-gauge needle. In the SCH 58261 experiment, groups were administered vehicle or SCH 58261 for 4 d. Vehicle/drug and dextrans were injected on day 5 and tissues were collected 3 h after vehicle/drug administration. In Lexiscan experiments, Lexiscan was administered i.v. with 3 injections, 5 min apart and tissues were collected at 15 min unless otherwise indicated.
In dose-response experiments and experiments with the A1 AR and A2A AR knock-out mice, drugs and dextrans were injected concomitantly. After 3 h, the mice were anesthetized with ketamine/xylazine and subjected to a nose cone containing isoflurane. They were perfused with 25-50 ml ice-cold PBS through the left ventricle of the heart then decapitated. Their brains were removed, weighed and frozen for later analysis.
Ice-cold 50 mM Tris-Cl (pH 7.6) was added to frozen brains (100 μl per 100 mg brain) and were to thawed on ice. They were homogenized manually with ˜45 strokes of a dounce homogenizer in plastic 1.5 ml microfuge tubes then spun at 16.1 g in a microfuge for 30 min at room temperature (rt). The supernatants were transferred to new tubes and an equal volume absolute methanol was added. The samples were spun again at 16.1 g for 30 min at rt. Supernatant (200 μl) was transferred to a Corning costar 96 well black polystyrene assay plate (clear bottom). Additionally, a series of standards containing 0.001-10 μg ml^−1 dextran in 50% Tris-Cl/50% absolute methanol (vol/vol) was added to each plate. Absolute concentrations of dextrans were derived from these standard curves. Fluorimetric analysis was performed on a BioTek Synergy 4. FITC-dextran was detected at 488/519 (excitation/emission) and Texas Red-dextran was detected at 592/618.

[4] = test system: CNS lymphocyte infiltration; assay: Immunohistochemistry of CD4+ infiltrating lymphocytes in brain and spinal cord after EAE induction; assay type: in vivo; conditions: wild type mice, day 15 post-EAE induction; 2 mg/kg daily; vs DMSO treated
Source text: (§1) Cd73^−/− mice have been previously described (Thompson et al., “Crucial Role for Ecto-5′-Nucleotidase (CD73) in Vascular Leakage During Hypoxia,” J. Exp. Med. 200:1395-1405 (2004), which is hereby incorporated by reference in its entirety) and have been backcrossed to C57BL/6 for 14 generations. Cd73 mice have no overt susceptibility to infection and appear normal based on the size and cellular composition of their lymphoid organs and their T and B cell responses in in vivo and in vitro assays (Thompson et al., “Crucial Role for Ecto-5′-Nucleotidase (CD73) in Vascular Leakage During Hypoxia,” J. Exp. Med. 200:1395-1405 (2004), which is hereby incorporated by reference in its entirety). C57BL/6 and tcrα^−/− mice on the C57BL/6 background were purchased from The Jackson Laboratories. Mice were bred and housed under specific pathogen-free conditions at Cornell University or the University of Turku. For adenosine receptor blockade experiments, mice were given drinking water supplemented with 0.6 g/L of caffeine (Sigma) or 2 mg/kg SCH58261 (1 mg/kg s.c. and 1 mg/kg i.p.) in DMSO (45% vol. in PBS) or 45% DMSO alone starting 1 day before EAE induction and continuing throughout the experiment. All procedures performed on mice were approved by the relevant animal review committee. […]

[5] = test system: blood brain barrier; assay: FITC-Dextran extravasation through the brain endothelium (brain sections); assay type: in vivo, mice; conditions: wild type mice, FIG. 16
Protocol: In order to examine the effects of caffeine, a general adenosine receptor antagonist, on blood brain barrier permeability, mice were fed caffeine for several days and then injected with FITC Dextran, commonly used to assess endothelial permeability.
More particularly, mice were fed 0.6 g/l caffeine (Sigma, St. Louis, Mo.) in water or regular water ad lib for five days. Mice were injected IP with FITC Dextran (10,000 MW, Molecular Probes, Eugene, Oreg.) and after 30 minutes mice were perfused with ice cold PBS via the left ventricle. Brains were removed and snap frozen in OCT (Tissue Tek, Torrance, Calif.) and stored at −80° C. until sectioning. Tissue sections (5 μm) were stained with hematoxylin for light microscopy and with DAPI for a fluorescent counterstain.

[6] = test system: ICAM-1 on the choroid plexus; assay: Immunohistochemistry of ICAM-1 expression at the choroid plexus after EAE induction; assay type: in vivo; conditions: wild type mice, day 15 post-EAE induction; 2 mg/kg daily; vs DMSO
Source text: as §1

[7] = test system: Experimental Autoimmune Encephalomyelitis (EAE); assay: MOG-induced EAE induction and daily scoring; assay type: in vivo, mice; conditions: wild type mice; 2 mg/kg (1 mg/kg i.p. and 1 mg/kg s.c.) 1 day prior to EAE induction and daily for 30 days; vs DMSO alone
Source text: Cd73^−/− mice have been previously described (Thompson et al., “Crucial Role for Ecto-5′-Nucleotidase (CD73) in Vascular Leakage During Hypoxia,” J. Exp. Med. 200:1395-1405 (2004), which is hereby incorporated by reference in its entirety) and have been backcrossed to C57BL/6 for 14 generations. Cd73 mice have no overt susceptibility to infection and appear normal based on the size and cellular composition of their lymphoid organs and their T and B cell responses in in vivo and in vitro assays (Thompson et al., “Crucial Role for Ecto-5′-Nucleotidase (CD73) in Vascular Leakage During Hypoxia,” J. Exp. Med. 200:1395-1405 (2004), which is hereby incorporated by reference in its entirety). C57BL/6 and tcrα^−/− mice on the C57BL/6 background were purchased from The Jackson Laboratories. Mice were bred and housed under specific pathogen-free conditions at Cornell University or the University of Turku. For adenosine receptor blockade experiments, mice were given drinking water supplemented with 0.6 g/L of caffeine (Sigma) or 2 mg/kg SCH58261 (1 mg/kg s.c. and 1 mg/kg i.p.) in DMSO (45% vol. in PBS) or 45% DMSO alone starting 1 day before EAE induction and continuing throughout the experiment. All procedures performed on mice were approved by the relevant animal review committee.
EAE was induced by subjecting mice to the myelin oligodendrocyte glycoprotein (“MOG”) EAE-inducing regimen as described in Swanborg, “Experimental Autoimmune Encephalomyelitis in Rodents as a Model for Human Demyelinating Disease,” Clin. Immunol. Immunopathol. 77:4-13 (1995) and Bynoe et al., “Epicutaneous Immunization with Autoantigenic Peptides Induces T Suppressor Cells that Prevent Experimental Allergic Encephalomyelitis,” Immunity 19:317-328 (2003), which are hereby incorporated by reference in their entirety. Briefly, a 1:1 emulsion of MOG35-55 peptide (3 mg/ml in PBS) (Invitrogen) and complete Freund's adjuvant (CFA, Sigma) was injected subcutaneously (50 μl) into each flank. Pertussis toxin (PTX, 20 ng) (Biological Laboratories Inc.) was given intravenously (200 μl in PBS) at the time of immunization and again 2 days later. Mice were scored daily for EAE based on disease symptom severity; 0=no disease, 0.5-1=weak/limp tail, 2=limp tail and partial hind limb paralysis, 3=total hind limb paralysis, 4=both hind limb and fore limb paralysis, 5=death. Mice with a score of 4 were euthanized.

Question: `CNC(=O)c1cnn(-c2nc(N)c3ncn([C@@H]4O[C@H](CO)[C@@H](O)[C@H]4O)c3n2)c1` [Lexiscan] was tested. Which BBB permeability [1] did it give?
Answer: increased BBB permeability in rats

Question: And the “actin stress fibers compared to vehicle alone” value [2]?
Answer: induction of actin stress fibers was observed

Question: What about the “magnitude of increased BBB permeability compared with NECA administration” value ([3]; i.v. administration) of the same compound?
Answer: much greater

Question: And the “BBB permeability to 10,000 Da dextrans” value ([3]; mice, i.v., 3 injections 5 min apart, tissues collected at 15 min)?
Answer: increase BBB permeability to 10,000 Da dextrans

Question: And the “time after which FITC-dextran was detectable in the brain” value ([3]; mice, single i.v. injection)?
Answer: 5 min

Question: How did the “frequency of CD4+ lymphocytes in the brain and spinal cord” value [4] turn out when `Nc1nc2c(cnn2CCc2ccccc2)c2nc(-c3ccco3)nn12` [SCH58261, 2-(2-Furanyl)-7-(2-phenylethyl)-7H-pyrazolo[4,3-e][1,2,4]triazolo[1,5-c]pyrimidin-5-amine] was run?
Answer: significantly lower frequency

Question: And the “FITC-Dextran extravasation across the blood brain barrier” value [5]?
Answer: inhibit FITC-Dextran extravasation

Question: What about the “ICAM-1 expression on the choroid plexus following EAE induction” value [6] of the same compound?
Answer: prevented the up regulation of ICAM-1

Question: And the “entry of 10,000 Da FITC-dextran into brain” value ([3]; WT mice, intraperitoneal administration for 4 d, dextran on day 5)?
Answer: significantly decreased entry

Question: What about the EAE development [7] of the same compound?
Answer: dramatically protected against EAE development
